In US20250122183A1 (Pfizer Inc., priority 2023, published 2025):

What was measured:
Type in all cases: biochemical
KAT5 Full length enzyme = KAT5 Full length enzyme (Homo sapiens (Human), UniProt Q92993); assay: KAT5 assay (SAMDI-MS acetylation of H4 1-21 peptide); conditions: Morrison equation fit; replicate number in parentheses; read-out: KAT5 Ki (nM) (replicate number)
KAT8 Full length enzyme = KAT8 Full length enzyme (Homo sapiens (Human), UniProt Q9H7Z6); assay: KAT8 assay (SAMDI-MS acetylation of H3 1-21 peptide); conditions: Morrison equation fit; replicate number in parentheses; read-out: KAT8 Ki (nM) (replicate number)
Chain of KAT8 Full length enzyme (Q9H7Z6 whole entry): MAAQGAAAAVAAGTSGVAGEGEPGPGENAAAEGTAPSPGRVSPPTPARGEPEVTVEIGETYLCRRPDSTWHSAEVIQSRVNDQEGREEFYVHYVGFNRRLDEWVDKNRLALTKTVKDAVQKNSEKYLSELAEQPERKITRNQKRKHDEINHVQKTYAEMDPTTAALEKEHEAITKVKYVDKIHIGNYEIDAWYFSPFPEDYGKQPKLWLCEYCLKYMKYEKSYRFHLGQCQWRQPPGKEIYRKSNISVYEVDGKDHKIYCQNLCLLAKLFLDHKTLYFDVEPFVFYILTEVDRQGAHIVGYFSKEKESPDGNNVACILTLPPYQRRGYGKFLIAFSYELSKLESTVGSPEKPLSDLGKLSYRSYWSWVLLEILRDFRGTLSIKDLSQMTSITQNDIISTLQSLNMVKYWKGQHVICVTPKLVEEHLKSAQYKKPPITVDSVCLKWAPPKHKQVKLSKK

[1] = target: KAT7+JADE1+EAF6+ING5 4 protein complex (Homo sapiens (Human), UniProt O95251); assay: KAT7 JADE1 assay (SAMDI-MS acetylation of H3 1-21 peptide); conditions: Morrison equation fit; replicate number in parentheses; read-out: KAT7 JADE1 Ki (nM) (replicate number)
KAT6A Full length enzyme = KAT6A Full length enzyme (Homo sapiens (Human), UniProt Q92794); assay: KAT6A assay (SAMDI-MS acetylation of H3 1-21 peptide); conditions: Morrison equation fit; replicate number in parentheses; read-out: KAT6A Ki (nM) (replicate number)
Chain of KAT6A Full length enzyme (Q92794 other isoform, or with tags, fused parts or gaps): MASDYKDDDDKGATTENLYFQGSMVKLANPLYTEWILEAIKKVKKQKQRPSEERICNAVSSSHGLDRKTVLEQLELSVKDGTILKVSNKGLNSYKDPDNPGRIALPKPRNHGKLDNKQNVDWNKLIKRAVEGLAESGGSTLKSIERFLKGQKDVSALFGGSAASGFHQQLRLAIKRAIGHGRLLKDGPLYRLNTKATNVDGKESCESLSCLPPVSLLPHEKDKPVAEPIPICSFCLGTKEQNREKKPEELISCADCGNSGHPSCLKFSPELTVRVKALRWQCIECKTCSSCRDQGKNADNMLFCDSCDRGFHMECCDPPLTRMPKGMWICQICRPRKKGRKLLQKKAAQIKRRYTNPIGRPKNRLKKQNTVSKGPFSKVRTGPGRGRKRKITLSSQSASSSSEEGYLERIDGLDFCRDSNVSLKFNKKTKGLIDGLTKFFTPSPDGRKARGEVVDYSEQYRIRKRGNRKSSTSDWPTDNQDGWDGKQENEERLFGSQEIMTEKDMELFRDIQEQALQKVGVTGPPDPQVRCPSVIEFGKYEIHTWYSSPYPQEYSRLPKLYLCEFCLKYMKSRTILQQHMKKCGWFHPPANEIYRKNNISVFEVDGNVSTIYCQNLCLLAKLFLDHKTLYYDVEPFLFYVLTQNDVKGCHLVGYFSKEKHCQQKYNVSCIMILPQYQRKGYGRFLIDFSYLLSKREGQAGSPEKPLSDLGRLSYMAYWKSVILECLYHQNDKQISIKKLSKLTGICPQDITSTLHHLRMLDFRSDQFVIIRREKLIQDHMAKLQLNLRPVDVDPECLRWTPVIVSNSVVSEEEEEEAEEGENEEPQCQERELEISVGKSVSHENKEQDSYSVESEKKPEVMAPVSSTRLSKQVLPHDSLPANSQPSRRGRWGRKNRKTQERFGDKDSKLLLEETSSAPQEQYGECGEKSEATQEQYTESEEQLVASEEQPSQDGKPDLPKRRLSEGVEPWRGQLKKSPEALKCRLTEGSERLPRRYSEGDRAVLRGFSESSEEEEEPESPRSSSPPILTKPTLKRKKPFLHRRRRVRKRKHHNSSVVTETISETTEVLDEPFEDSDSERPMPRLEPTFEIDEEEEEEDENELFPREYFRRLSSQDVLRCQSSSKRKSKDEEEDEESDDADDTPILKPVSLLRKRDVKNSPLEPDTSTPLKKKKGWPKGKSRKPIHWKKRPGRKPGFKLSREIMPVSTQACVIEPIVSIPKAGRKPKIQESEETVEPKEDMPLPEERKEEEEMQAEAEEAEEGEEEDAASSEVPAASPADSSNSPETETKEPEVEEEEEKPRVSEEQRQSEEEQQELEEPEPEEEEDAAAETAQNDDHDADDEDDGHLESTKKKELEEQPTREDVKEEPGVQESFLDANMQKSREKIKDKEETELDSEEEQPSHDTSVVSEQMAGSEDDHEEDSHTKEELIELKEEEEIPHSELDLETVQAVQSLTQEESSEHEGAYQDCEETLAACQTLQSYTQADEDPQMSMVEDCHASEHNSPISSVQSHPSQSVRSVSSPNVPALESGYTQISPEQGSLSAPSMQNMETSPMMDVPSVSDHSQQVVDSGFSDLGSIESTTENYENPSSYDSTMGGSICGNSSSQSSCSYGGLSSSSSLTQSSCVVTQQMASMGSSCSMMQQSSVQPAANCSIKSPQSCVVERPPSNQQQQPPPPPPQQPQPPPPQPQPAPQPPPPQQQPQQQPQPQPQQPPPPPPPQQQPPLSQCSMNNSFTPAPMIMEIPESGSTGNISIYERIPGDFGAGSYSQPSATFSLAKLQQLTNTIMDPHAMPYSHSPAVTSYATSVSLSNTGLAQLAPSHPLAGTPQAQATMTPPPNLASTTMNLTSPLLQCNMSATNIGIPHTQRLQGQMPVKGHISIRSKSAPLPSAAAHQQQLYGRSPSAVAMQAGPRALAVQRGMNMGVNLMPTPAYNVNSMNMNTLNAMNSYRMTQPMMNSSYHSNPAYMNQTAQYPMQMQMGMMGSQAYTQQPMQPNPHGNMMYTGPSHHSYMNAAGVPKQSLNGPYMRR

Chain of KAT5 Full length enzyme (Q92993 whole entry): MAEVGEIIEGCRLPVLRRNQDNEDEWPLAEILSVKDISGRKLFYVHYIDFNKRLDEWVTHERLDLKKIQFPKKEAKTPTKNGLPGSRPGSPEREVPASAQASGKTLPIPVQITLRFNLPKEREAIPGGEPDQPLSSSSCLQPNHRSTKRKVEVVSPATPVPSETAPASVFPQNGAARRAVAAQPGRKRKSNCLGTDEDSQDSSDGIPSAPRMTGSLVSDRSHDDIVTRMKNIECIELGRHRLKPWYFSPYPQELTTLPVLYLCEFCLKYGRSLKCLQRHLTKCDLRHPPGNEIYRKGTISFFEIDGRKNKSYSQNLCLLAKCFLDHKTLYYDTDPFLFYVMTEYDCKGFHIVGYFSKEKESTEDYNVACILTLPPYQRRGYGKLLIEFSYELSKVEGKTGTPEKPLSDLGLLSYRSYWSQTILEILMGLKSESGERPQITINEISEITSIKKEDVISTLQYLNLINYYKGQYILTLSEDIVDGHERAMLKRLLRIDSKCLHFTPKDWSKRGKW

Compound `COc1cc2c(NS(=O)(=O)c3c(OC)cccc3OC)noc2cc1Nc1cc(C(F)F)n[nH]1` [Example 115, N-(6-{[3-(difluoromethyl)-1H-pyrazol-5-yl]amino}-5-methoxy-1,2-benzoxazol-3-yl)-2,6-dimethoxybenzene-1-sulfonamide] has a Ki (KAT5 Full length enzyme) of 101 nM, a Ki (KAT8 Full length enzyme) of 8920 nM and a Ki [1] of 32.2 nM. The Ki (KAT6A Full length enzyme) was 0.1 nM.

For `COc1cc2c(NS(=O)(=O)c3c(OC)cc(-c4ncccn4)cc3OC)noc2cc1Nc1cc(C2CC2)n[nH]1` [Example 211, N-{6-[(3-cyclopropyl-1 H-pyrazol-5-yl)amino]-5-methoxy-1,2-benzoxazol-3-yl}-2,6-dimethoxy-4-(pyrimidin-2-yl)benzene-1-sulfonamide], the Ki (KAT5 Full length enzyme) was 89.4 nM, the Ki (KAT8 Full length enzyme) was 1350 nM and the Ki [1] was 3.7 nM. The Ki (KAT6A Full length enzyme) was 1.1 nM.

`CCc1ccnc(Nc2cc3onc(NS(=O)(=O)c4c(OC)cccc4OC)c3cc2OC)n1` [Example 106, N-{6-[(4-ethylpyrimidin-2-yl)amino]-5-methoxy-1,2-benzoxazol-3-yl}-2,6-dimethoxybenzene-1-sulfonamide] gave a Ki (KAT5 Full length enzyme) of 1990 nM, a Ki (KAT8 Full length enzyme) of 6430 nM and a Ki [1] of 410 nM. For the same compound, the Ki (KAT6A Full length enzyme) was 11.7 nM.

`COc1cc(F)c(F)cc1S(=O)(=O)Nc1noc2cc(Nc3cc(C4CC4)n[nH]3)c(F)c(OC)c12` [Example 100, N-{6-[(3-cyclopropyl-1H-pyrazol-5-yl)amino]-5-fluoro-4-methoxy-1,2-benzoxazol-3-yl}-4,5-difluoro-2-methoxybenzene-1-sulfonamide] showed a Ki (KAT5 Full length enzyme) of 1060 nM, a Ki (KAT8 Full length enzyme) of over 13000 nM and a Ki [1] of 86.6 nM. For the same compound, the Ki (KAT6A Full length enzyme) was 21.4 nM.

`COc1cccc(OC)c1S(=O)(=O)Nc1noc2cc(NC3CCC3)cc(OC)c12` [Example 10, N-[6-(cyclobutylamino)-4-methoxy-1,2-benzoxazol-3-yl]-2,6-dimethoxybenzene-1-sulfonamide] showed a Ki (KAT5 Full length enzyme) of 11800 nM, a Ki (KAT8 Full length enzyme) of 11500 nM and a Ki [1] of 727 nM. It also gave a Ki (KAT6A Full length enzyme) of 3.1 nM.

`COc1cc2c(NS(=O)(=O)c3c(OC)cc(-c4ncc(CN(C)C)cn4)cc3OC)noc2cc1Nc1cc(C2CC2)n[nH]1` [Example 223, N-{6-[(3-cyclopropyl-1H-pyrazol-5-yl)amino]-5-methoxy-1,2-benzoxazol-3-yl}-4-{5-[(dimethylamino)methyl]pyrimidin-2-yl}-2,6-dimethoxybenzene-1-sulfonamide] showed a Ki (KAT5 Full length enzyme) of 25.4 nM, a Ki (KAT8 Full length enzyme) of 679 nM and a Ki [1] of 4 nM. It also gave a Ki (KAT6A Full length enzyme) of 0.4 nM.

`COc1cc2c(NS(=O)(=O)c3c(OC)cccc3OC)noc2cc1Nc1cc2n(n1)CC[C@H]2C` (single isomer, unassigned) [Example 90, 2,6-dimethoxy-N-(5-methoxy-6-{[4-methyl-5,6-dihydro-4H-pyrrolo[1,2-b]pyrazol-2-yl]amino}-1,2-benzoxazol-3-yl)benzene-1-sulfonamide] gave a Ki (KAT5 Full length enzyme) of 251 nM, a Ki (KAT8 Full length enzyme) of over 13000 nM and a Ki [1] of 62.4 nM. It also gave a Ki (KAT6A Full length enzyme) of 3.4 nM.

Work on `COc1cc(F)ccc1S(=O)(=O)Nc1noc2cc(Nc3cc(C4CC4)n[nH]3)c(F)c(OC)c12` [Example 97, N-{6-[(3-cyclopropyl-1H-pyrazol-5-yl)amino]-5-fluoro-4-methoxy-1,2-benzoxazol-3-yl}-4-fluoro-2-methoxybenzene-1-sulfonamide] yielded a Ki (KAT5 Full length enzyme) of 795 nM, a Ki (KAT8 Full length enzyme) of over 13000 nM and a Ki [1] of 57.7 nM. For the same compound, the Ki (KAT6A Full length enzyme) was 9.8 nM.

Work on `COc1cc2c(NS(=O)(=O)c3c(OC)cccc3OC)noc2cc1Nc1cc(OC)n(C)n1` [Example 104, 2,6-dimethoxy-N-{5-methoxy-6-[(5-methoxy-1-methyl-1H-pyrazol-3-yl)amino]-1,2-benzoxazol-3-yl}benzene-1-sulfonamide] yielded a Ki (KAT5 Full length enzyme) of 1040 nM, a Ki (KAT8 Full length enzyme) of over 10900 nM and a Ki [1] of 139 nM. The Ki (KAT6A Full length enzyme) was 5.6 nM.

With `CCc1cc(Nc2cc3onc(NS(=O)(=O)c4c(OC)cccc4OC)c3cc2OC)nn1C` [Example 73, N-{6-[(5-ethyl-1-methyl-1H-pyrazol-3-yl)amino]-5-methoxy-1,2-benzoxazol-3-yl}-2,6-dimethoxybenzene-1-sulfonamide] the Ki (KAT5 Full length enzyme) was 287 nM, the Ki (KAT8 Full length enzyme) was 4330 nM and the Ki [1] was 31.3 nM. It also gave a Ki (KAT6A Full length enzyme) of 0.7 nM.

In the case of `COc1cc2c(NS(=O)(=O)c3c(OC)cc(-c4cccnc4)cc3OC)noc2cc1Nc1cc(C2CC2)n[nH]1` [Example 07, N-{6-[(3-cyclopropyl-1H-pyrazol-5-yl)amino]-5-methoxy-1,2-benzoxazol-3-yl}-2,6-dimethoxy-4-(pyridin-3-yl)benzene-1-sulfonamide], the Ki (KAT5 Full length enzyme) is reported as 53.6 nM, the Ki (KAT8 Full length enzyme) is reported as 457 nM and the Ki [1] is reported as 4.2 nM. It also gave a Ki (KAT6A Full length enzyme) of 0.6 nM.

`COc1cc2c(NS(=O)(=O)c3c(OC)cc([C@H]4CCCO4)cc3OC)noc2cc1Nc1cc(C2CC2)n[nH]1` [Example 141, N-{6-[(3-cyclopropyl-1 H-pyrazol-5-yl)amino]-5-methoxy-1,2-benzoxazol-3-yl}-2,6-dimethoxy-4-[(2R)-oxolan-2-yl]benzene-1-sulfonamide] was tested, and the Ki (KAT5 Full length enzyme) was 134 nM, the Ki (KAT8 Full length enzyme) was 762 nM and the Ki [1] was 6.9 nM. It also gave a Ki (KAT6A Full length enzyme) of 1 nM.

With `COc1cc2c(NS(=O)(=O)c3c(OC)cc(-c4ccncc4)cc3OC)noc2cc1Nc1cc(C2CC2)n[nH]1` [Example 120, N-{6-[(3-cyclopropyl-1H-pyrazol-5-yl)amino]-5-methoxy-1,2-benzoxazol-3-yl}-2,6-dimethoxy-4-(pyridin-4-yl)benzene-1-sulfonamide] the Ki (KAT5 Full length enzyme) was 236 nM, the Ki (KAT8 Full length enzyme) was 640 nM and the Ki [1] was 10.8 nM. For the same compound, the Ki (KAT6A Full length enzyme) was 0.8 nM.

Compound `CCc1cc(Nc2cc3onc(NS(=O)(=O)c4ccc5c(c4)OCCO5)c3cc2OC)n[nH]1` [Example 129, N-{6-[(5-ethyl-1 H-pyrazol-3-yl)amino]-5-methoxy-1,2-benzoxazol-3-yl}-2,3-dihydro-1,4-benzodioxine-6-sulfonamide] has a Ki (KAT5 Full length enzyme) of 5630 nM, a Ki (KAT8 Full length enzyme) of over 13000 nM and a Ki [1] of 244 nM. It also gave a Ki (KAT6A Full length enzyme) of 56.8 nM.

For `COc1cc2c(NS(=O)(=O)c3c(OC)cccc3OC)noc2cc1Nc1cc(C2(C)CC2)n[nH]1` [Example 94, 2,6-dimethoxy-N-(5-methoxy-6-{[3-(1-methylcyclopropyl)-1H-pyrazol-5-yl]amino}-1,2-benzoxazol-3-yl)benzene-1-sulfonamide], the Ki (KAT5 Full length enzyme) was 193 nM, the Ki (KAT8 Full length enzyme) was 5740 nM and the Ki [1] was 58.1 nM. For the same compound, the Ki (KAT6A Full length enzyme) was 6.3 nM.

For `COc1cc2c(NS(=O)(=O)c3c(OC)cc(-c4cnn(C)c4)cc3OC)noc2cc1Nc1cc(C2CC2)n[nH]1` [Example 123, N-{6-[(3-cyclopropyl-1H-pyrazol-5-yl)amino]-5-methoxy-1,2-benzoxazol-3-yl}-2,6-dimethoxy-4-(1-methyl-1H-pyrazol-4-yl)benzene-1-sulfonamide], the Ki (KAT5 Full length enzyme) was 246 nM, the Ki (KAT8 Full length enzyme) was 189 nM and the Ki [1] was 10.4 nM. It also gave a Ki (KAT6A Full length enzyme) of 0.8 nM.

`COc1cc2c(NS(=O)(=O)c3c(OC)cc(C4CCCCO4)cc3OC)noc2cc1Nc1cc(C2CC2)n[nH]1` (single isomer, unassigned) [Example 143, N-{6-[(3-cyclopropyl-1 H-pyrazol-5-yl)amino]-5-methoxy-1,2-benzoxazol-3-yl}-2,6-dimethoxy-4-(oxan-2-yl)benzene-1-sulfonamide] was tested, and the Ki (KAT5 Full length enzyme) was 44.3 nM, the Ki (KAT8 Full length enzyme) was 436 nM and the Ki [1] was 9.6 nM. The Ki (KAT6A Full length enzyme) was 1.1 nM.

`COc1cc2c(NS(=O)(=O)c3c(OC)cc(C(C)N4CC(F)C4)cc3OC)noc2cc1Nc1cc(C2CC2)[nH]n1` (single isomer, unassigned) [Example 209, N-{6-[(5-cyclopropyl-1 H-pyrazol-3-yl)amino]-5-methoxy-1,2-benzoxazol-3-yl}-4-[1-(3-fluoroazetidin-1-yl)ethyl]-2,6-dimethoxybenzene-1-sulfonamide] gave a Ki (KAT5 Full length enzyme) of 106 nM, a Ki (KAT8 Full length enzyme) of 2400 nM and a Ki [1] of 7.7 nM. The Ki (KAT6A Full length enzyme) was 1.4 nM.

In the case of `COc1cc2c(NS(=O)(=O)c3c(OC)cc(C4CCN(C)C4)cc3OC)noc2cc1Nc1cc(C2CC2)n[nH]1` (single isomer, unassigned) [Example 148, N-{6-[(3-cyclopropyl-1 H-pyrazol-5-yl)amino]-5-methoxy-1,2-benzoxazol-3-yl}-2,6-dimethoxy-4-(1-methylpyrrolidin-3-yl)benzene-1-sulfonamide], the Ki (KAT5 Full length enzyme) is reported as 78.1 nM, the Ki (KAT8 Full length enzyme) is reported as 575 nM and the Ki [1] is reported as 3.6 nM. For the same compound, the Ki (KAT6A Full length enzyme) was 1.1 nM.

In the case of `CCn1cnc(Nc2cc3onc(NS(=O)(=O)c4c(OC)cccc4OC)c3cc2OC)c1` [Example 75, N-{6-[(1-ethyl-1H-imidazol-4-yl)amino]-5-methoxy-1,2-benzoxazol-3-yl}-2,6-dimethoxybenzene-1-sulfonamide], the Ki (KAT5 Full length enzyme) is reported as 2210 nM, the Ki (KAT8 Full length enzyme) is reported as over 11200 nM and the Ki [1] is reported as 501 nM. It also gave a Ki (KAT6A Full length enzyme) of 22.3 nM.

`CCc1cnc(Nc2cc3onc(NS(=O)(=O)c4c(OC)cccc4OC)c3cc2OC)nc1` [Example 107, N-{6-[(5-ethylpyrimidin-2-yl)amino]-5-methoxy-1,2-benzoxazol-3-yl}-2,6-dimethoxybenzene-1-sulfonamide] showed a Ki (KAT5 Full length enzyme) of 10400 nM, a Ki (KAT8 Full length enzyme) of over 13000 nM and a Ki [1] of 6540 nM. It also gave a Ki (KAT6A Full length enzyme) of 132 nM.

`CCOc1cc(C(F)F)ccc1S(=O)(=O)Nc1noc2cc(Nc3cc(C4CC4)n[nH]3)c(F)c(OC)c12` [Example 101, N-{6-[(3-cyclopropyl-1H-pyrazol-5-yl)amino]-5-fluoro-4-methoxy-1,2-benzoxazol-3-yl}-4-(difluoromethyl)-2-ethoxybenzene-1-sulfonamide] showed a Ki (KAT5 Full length enzyme) of 1230 nM, a Ki (KAT8 Full length enzyme) of 10300 nM and a Ki [1] of 50.7 nM. The Ki (KAT6A Full length enzyme) was 5.3 nM.

`CCc1cc(Nc2cc3onc(NS(=O)(=O)c4ccc(OC)c(F)c4)c3cc2OC)n[nH]1` [Example 133, N-{6-[(5-ethyl-1 H-pyrazol-3-yl)amino]-5-methoxy-1,2-benzoxazol-3-yl}-3-fluoro-4-methoxybenzene-1-sulfonamide] showed a Ki (KAT5 Full length enzyme) of 6210 nM, a Ki (KAT8 Full length enzyme) of over 13000 nM and a Ki [1] of 321 nM. For the same compound, the Ki (KAT6A Full length enzyme) was 78.7 nM.
